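GI50 marks 50% less growth. Definition used: TGI = concentration required for complete inhibition of growth.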
How the values were obtained:
Test in all cases: NCI-60 cell line screen, 384-well format
[1] = tested on: COLO 205 colon
[2] = tested on: DU-145 prostate
[3] = tested on: A549 NSCLC
[4] = tested on: LOX IMVI melanoma
[5] = tested on: EKVX NSCLC
[6] = tested on: NCI-H522 lung
[7] = tested on: T-47D breast
[8] = tested on: NCI-H23 lung
[9] = tested on: M14 melanoma
[10] = tested on: HT29 colon
[11] = tested on: SR leukemia
[12] = tested on: K-562 leukemia
[13] = tested on: HOP-92 NSCLC
[14] = tested on: UACC-62 melanoma
[15] = tested on: NCI-H226 lung
[16] = tested on: SK-MEL-28 melanoma
[17] = tested on: MDA-MB-231 breast
[18] = tested on: OVCAR-3 ovarian
[19] = tested on: OVCAR-4 ovarian
[20] = tested on: KM12 colon
[21] = tested on: UACC-257 melanoma
[22] = tested on: CAKI-1 renal
[23] = tested on: OVCAR-5 ovarian
[24] = tested on: OVCAR-8 ovarian
[25] = tested on: RXF 393 renal
[26] = tested on: NCI/ADR-RES ovarian
[27] = tested on: HL-60(TB) leukemia
[28] = tested on: HCT-116 colon
[29] = tested on: MALME-3M melanoma
[30] = tested on: SW-620 colon

Work on `O=C(Nc1ccc(O)c(NS(=O)(=O)c2ccc(F)cc2)c1)c1ccc(-c2ccccc2)cc1` yielded a GI50 [1] of 11.5 µM, a TGI [1] of 24 µM and a GI50 [2] of 10.1 µM. The TGI [2] was 21.8 µM, the GI50 [3] was 5.05 µM and the TGI [3] was 17 µM. The GI50 [4] was 3.87 µM, the TGI [4] was 15 µM and the GI50 [5] was 4.13 µM. For the same compound, the TGI [5] was 14 µM, the GI50 [6] was 2.3 µM and the TGI [6] was 6.5 µM. For the same compound, the GI50 [7] was 8 µM, the TGI [7] was 20.7 µM and the GI50 [8] was 6.12 µM. It also gave a TGI [8] of 18.6 µM, a GI50 [9] of 6.4 µM and a TGI [9] of 19 µM. For the same compound, the GI50 [10] was 12 µM, the TGI [10] was 24.5 µM and the GI50 [11] was 1.65 µM. The TGI [11] was 3.17 µM, the GI50 [12] was 3.68 µM and the TGI [12] was 13.5 µM. The GI50 [13] was 4.12 µM, the TGI [13] was 14.4 µM and the GI50 [14] was 4.96 µM. The TGI [14] was 17.6 µM, the GI50 [15] was 8.98 µM and the TGI [15] was 21.1 µM. For the same compound, the GI50 [16] was 11.4 µM, the TGI [16] was 23.8 µM and the GI50 [17] was 3.36 µM. For the same compound, the TGI [17] was 13.5 µM, the GI50 [18] was 2.86 µM and the TGI [18] was 10.6 µM. It also gave a GI50 [19] of 3.24 µM, a TGI [19] of 14.5 µM and a GI50 [20] of 5.26 µM. The TGI [20] was 18.3 µM, the GI50 [21] was 7.05 µM and the TGI [21] was 19.8 µM. The GI50 [22] was 5.16 µM, the TGI [22] was 17.7 µM and the GI50 [23] was 10.2 µM. It also gave a TGI [23] of 21.9 µM, a GI50 [24] of 3.73 µM and a TGI [24] of 14.1 µM. For the same compound, the GI50 [25] was 1.68 µM, the TGI [25] was 4.57 µM and the GI50 [26] was 5.28 µM. It also gave a TGI [26] of 17.5 µM, a GI50 [27] of 1.55 µM and a TGI [27] of 2.91 µM. It also gave a GI50 [28] of 3.71 µM, a TGI [28] of 12.7 µM and a GI50 [29] of 4.06 µM. It also gave a TGI [29] of 15.4 µM and a GI50 [30] of 10.2 µM.
